Source: ChEMBL document CHEMBL1143449, “Exploring the connection unit in the HDAC inhibitor pharmacophore model: novel uracil-based hydroxamates” (Bioorg Med Chem Lett, 2005)

What was measured:
[1] = biological target: T1, Histone deacetylase HD2 (Zea mays, UniProt Q94F81); test: Inhibitory concentration against Histone deacetylase 2 in maize; type: functional
T1 sequence (Q94F81 whole entry): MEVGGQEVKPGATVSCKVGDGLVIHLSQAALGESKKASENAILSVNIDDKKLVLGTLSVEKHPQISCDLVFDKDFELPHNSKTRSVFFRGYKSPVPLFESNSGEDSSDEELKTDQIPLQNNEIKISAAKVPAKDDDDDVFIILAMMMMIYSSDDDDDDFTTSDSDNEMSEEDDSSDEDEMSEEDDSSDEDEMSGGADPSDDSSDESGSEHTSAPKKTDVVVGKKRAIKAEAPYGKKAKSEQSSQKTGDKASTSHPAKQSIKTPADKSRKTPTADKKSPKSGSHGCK

[2] = Inhibitory concentration against Histone deacetylase 1A in maize; type: functional, Zea mays
[3] = Inhibitory concentration against Histone deacetylase 1B in maize; type: functional, Zea mays
[4] = tested on: Zea mays; test: Selectivity of for class II (HD1A) against class I (HD1B) histone deacetylases; type: functional
[5] = tested on: Zea mays; test: Selectivity for class I (HD1B) against class II (HD1A) histone deacetylases; type: functional

| SMILES | IC50 [1] [nM] | IC50 [2] [nM] | IC50 [3] [nM] | Selectivity index [4] | Selectivity index [5] |
| --- | --- | --- | --- | --- | --- |
| O=C(CCCCCCCSc1nc(O)cc(Cc2ccccc2)n1)NO | 61 | 64 | 193 | 3 | – |
| O=C(/C=C/Sc1nc(O)cc(Cc2ccccc2)n1)NO | 9000 | 13300 | 7400 | – | – |
| O=C(CCCCSc1nc(O)cc(Cc2ccccc2)n1)NO | 125 | 181 | 130 | – | – |
| Cc1cc(O)nc(SCCCCCC(=O)NO)n1 | 110 | 78 | 112 | – | – |
| O=C(CCCCCCC(=O)Nc1ccccc1)NO [VORINOSTAT] | – | – | 28 | – | – |
| O=C(CCCSc1nc(O)cc(Cc2ccccc2)n1)NO | – | 885 | 251 | – | 3.5 |
| O=C(CC1CSc2nc(Cc3ccccc3)cc(=O)n21)NO (stereo not drawn) | 31800 | 38200 | 30200 | – | – |
| CCCc1cc(O)nc(SCCCCCC(=O)NO)n1 | 135 | 66 | 116 | – | – |
| O=C(CCCCCSc1nccc(O)n1)NO | 213 | 132 | 239 | – | – |
| O=C(CCCSc1nc(Cc2ccccc2)cc(=O)[nH]1)NO | 229 | – | – | – | – |

The next lines start with results.

| IC50 [1] [nM] | IC50 [2] [nM] | IC50 [3] [nM] | SMILES | Selectivity index [4] | Selectivity index [5] |
| --- | --- | --- | --- | --- | --- |
| 18 | 29 | – | O=C(CCCCCSc1nc(Cc2ccccc2)cc(=O)[nH]1)NO | – | – |
| 35 | 25 | 48 | CCc1ccccc1-c1cc(O)nc(SCCCCCC(=O)NO)n1 | 2 | – |
| 38 | 126 | 41 | O=C(CCSc1nc(O)cc(Cc2ccccc2)n1)NO | – | 3.1 |
| 37 | 53 | 76 | O=C(CCCCCCSc1nc(O)cc(Cc2ccccc2)n1)NO | – | – |
| 7 | 0.8 | 0.4 | O=C(O)[C@@H]1C[C@]2(C(=O)O)C=C[C@@H](O)[C@@H](C2)O1 | – | 2 |
| 12 | 6 | 19 | O=C(CCCCCSc1nc(-c2ccccc2)cc(=O)[nH]1)NO | 3.2 | – |
